Literature values as cited in EP0490031B1, “Method for protecting crops while eliminating crop injury due to pesticide interactions” (priority 1990, dated 1992).

Tests used:
[1] = system: rats
[2] = system: rabbits; conditions: technical grade

Row | SMILES | acute percutaneous LD50 [1] | acute percutaneous LD50 [2]
1 | CCOP(=S)(OCC)SCSCC [Phorate] | 2.5-6.2 mg/kg of animal body weight | 
2 | CCOP(=S)(OCC)SCSC(C)(C)C [Technical grade terbufos, O,O-diethyl S-{[(1,1-dimethylethyl)thio]methyl}phosphorodithioate] |  | 1.0 mg/kg of animal body weight
